Values of other authors, collected in US7429390B2, “Stable pharmaceutical compositions, processes for making the same and methods of their use” (priority 2007, dated 2008).
Read-outs that look alike come from different tables or passages of the source.

**Q.** Which results are given for CNC(=C[N+](=O)[O-])NCCSCc1ccc(CN(C)C)o1 [compound of Formula I, N-[2-[[[5-(dimethylamino)methyl-2-furanyl]methyl]thio]ethyl]-N′-methyl-2-nitro-1,1-ethenediamine]?
**A.** time to symptomatic relief (GERD, after starting therapy with 150 mg b.i.d.): ≤ 24 h; time to symptomatic relief of heartburn (endoscopically diagnosed erosive esophagitis, therapy initiation with 150 mg b.i.d.): ≤ 24 h; time in which most patients heal (short-term treatment of active duodenal ulcer): ≤ 4 weeks; time in which most patients heal (short-term treatment of active, benign gastric ulcer): ≤ 6 weeks
